Reference: patent publication US7807368B2, “Cyclin-dependent kinase inhibitors as targets for opiod growth factor treatment” (priority 2006, dated 2010)
“Also recorded” adds a separate entry of the source.

How the values were obtained:
p21 [1] = assay: Western blot of p21 in PANC-1 cells; assay type: cell-based, human; details: synchronized PANC-1 cells, 6 hours
Description: Human pancreatic cancer cell lines BxPC-3, PANC-1, and Capan-2 were obtained from the American Type Culture Collection (Manassas, Va.), and cultured in RPMI, Dulbecco's Modified Medium, or McCoy's 5A medium, respectively. All media were supplemented with 10% fetal bovine serum, 1.2% sodium bicarbonate, and 0.25% antibiotics (5000 units/ml penicillin, 5 μg/ml streptomycin and 10 μg/ml neomycin). OGF was purchased from Sigma-Aldrich (St. Louis, Mo.), dissolved in sterile water, and used at a final concentration of 10^−6 M.
(§1) Synchronized cells (2×10^6) from each treatment were solubilized in 200 μl RIPA buffer (1×PBS, 10 μM IGEPAL, 1 mg/ml SDS, 5 mg/ml deoxycholic acid), containing protease and phosphatase inhibitors (2 μg/ml aprotinin, 3 mg/ml phenylmethyl sulfonyl fluoride, 1 mM sodium orthovanidate, 1 μM okadaic acid). Total protein concentrations were measured using the DC protein assay kit (Bio-Rad Laboratories, Hercules, Calif.). Equal amounts of protein (40 μg) were subjected to 10% SDS-PAGE followed by transfer of proteins onto polyvinylidene difluoride (Millipore, Billerica, Mass.) using standard protocols.
The p21-targeted siRNAs were obtained from Santa Cruz Biotechnology, and negative control siRNAs were purchased from Ambion (Ambion, Inc., Austin, Tex.). For transfection, 2×10^5 cells per well were seeded in 6-well plates containing 1 ml of media without antibiotics. […]

p21 [2] = assay: Western blot of p21, p27 and Cdk2 in BxPC-3 cells; assay type: cell-based, human
Description: as §1
(§2) The following antibodies were purchased from commercial sources: phospho-Rb (Ser795), phospho-Rb (Ser807/811) (Cell Signaling Technology, Beverly, Mass.); Cdk2, p57 (Santa Cruz Biotechnology, Santa Cruz, Calif.); p21, p27, total Rb (BD PharMingen, San Diego, Calif.); β-actin (Clone AC-15, Sigma-Aldrich).
(§3) Membranes were probed with secondary anti-rabbit or anti-mouse horseradish peroxidase-conjugated antibodies (GE Healthcare-Amersham Biosciences, Piscataway, N.J.), and developed using a chemiluminescence Western blotting detection system.
(§4) To determine equal loading of total protein samples, blots were re-probed with monoclonal antibody against β-actin at a dilution of 1:2000. If necessary, membranes were processed in stripping buffer (62.5 mM Tris-HCI and 100 mM β-mercaptoethanol/2% SDS, pH 6.7) at 50° C. before being re-probed.
(§5) To quantify expression levels or kinase activity, the optical density of each band was determined by densitometry and analyzed by QuickOne (Bio-Rad Laboratories). Each value was normalized to β-actin from the same blot. To report the changes due to OGF treatment, we calculated the fold increase by dividing the normalized value from the OGF treated samples by the normalized value of control samples at each time point; thus, increases due to OGF have values greater than one, and decreases due to OGF have values less than one. For all Western blot analyses, 3 or more independent experiments were performed.
The p21-targeted siRNAs were obtained from Santa Cruz Biotechnology, and negative control siRNAs were purchased from Ambion (Ambion, Inc., Austin, Tex.). For transfection, 2×10^5 cells per well were seeded in 6-well plates containing 1 ml of media without antibiotics. For each well, 1 μl of siRNA stock (20 μM) was mixed with 175 μl of serum-free media. Two μl of Oligofectamine reagent (Invitrogen, Carlsbad, Calif.) was added to prewashed cells in each well, making the final concentration for siRNA approximately 20 nM. Cells were incubated for 4 hours at 37° C. prior to the addition of OGF. Eighteen hours later, 1 ml fresh complete media with or without OGF was added to the cultures; media and OGF were replaced daily. At the indicated time points, cells were collected for growth curves or Western blotting.

[3] = test system: human umbilical vein endothelial cells (HUVEC); assay: Growth of HUVEC; assay type: cell-based
Excerpt: Another normal cell line, human umbilical vein endothelial cells (HUVEC) has been subjected to OGF exposure. […] At 96 hr, OGF-treated cultures had 45.9% fewer cells than normal cultures.

Rb protein = assay: Western blot of Rb and phospho-Rb in synchronized BxPC-3 cells; assay type: cell-based, human
Description: as §1, §2, §3, §4, §5

Cdk4 kinase activity = assay: Immunoprecipitation and Rb kinase assay (Cdk4 kinase activity) in SCC-1 cells; assay type: cell-based, human
Description: To quantify expression levels or kinase activity, the optical density of each band was determined by densitometry and analyzed by QuickOne (Bio-Rad Laboratories). Each value was normalized to β-actin from the same blot. To report the changes due to OGF treatment, the fold increase was calculated by dividing the normalized value from the OGF treated samples by the normalized value of control samples at each time point; thus, increases due to OGF have values greater than one, and decreases due to OGF have values less than one.
Immunoprecipitation and Rb kinase assay. For immunoprecipitating protein complexes, cell extracts were prepared as follows: 2×10^6 cells per sample were rinsed in cold PBS followed by lysis in 100 μl NP40 immunoprecipitation buffer (1% NP-40, 50 mM Tris-HCI (pH7.4), 150 mM NaCl, 1 mM EDTA, 10 mM NaF, 2 μg/ml antipain, 1 mM sodium orthovanidate, 2 μg/ml aprotinin, 2 μg/ml leupeptin, 1 μg/ml pepstatin A, 1 μM okadaic acid, 1 mM PMSF, 1 mM dithiothreitol (DTT). For each immunoprecipitation reaction mixture, a total of 500 μg of protein extract was used. The lysates were then subjected to immunoprecipitation using 10 μl polyclonal antibody against Cdk4 prebound with agarose conjugate (sc-601 AC, Santa Cruz) for 60 min at 4° C. Then immunoprecipitates were mixed with kinase buffer (25 mM HEPES, pH7.4, 10 mM MgCl2), 5 μCi γ^32P-ATP, and Rb(769-921) (sc-4112, Santa Cruz) as the substrate for Cdk4. After incubation for 30 min at 30° C., with occasional mixing, the reaction was stopped by the addition of 2× sample loading buffer (0.5 M Tris-HCl, pH 6.8, 4.4% (w/v) SDS, 20% (v/v) glycerol, 2% (v/v) 2-mercaptoethanol, and bromophenol blue in distilled/deionized water). Proteins in the reaction mixture were separated by a 10% SDS-PAGE gel. The Cdk4 kinase activity pattern was visualized by autoradiography of phosphorylated Rb.

[Met^5]-enkephalin [OGF]
p21 expression relative to control cells (p21 [1]): increased p21 expression | expression of the cell cycle inhibitor p27 (p21 [2]; OGF treatment): no significant effect | expression of Cdk2 protein (p21 [2]; following OGF exposure): did not change | p21 expression (p21 [2]; synchronized BxPC-3 cells, 9 hours, 10^-6 M OGF, 10^-5 M naloxone): significantly upregulated; also recorded: significantly elevated | cell number relative to control cultures ([3]; 10^-6 M OGF, 48, 72, and 96 hr): significant (p<0.01) reductions | fewer cells than normal cultures ([3]; 10^-6 M OGF, 96 hr): 45.9% | level of phospho-Rb (Ser795) (Rb protein; 15, 18, and 21 hours, 10^-6 M OGF, significant at 21 hours (p<0.01)): decreased | phospho-Rb (pSer807/811) levels (Rb protein; OGF treatment, Western blot): did not alter | Expression of total Rb protein (Rb protein; after 21 hours of OGF treatment): not decreased | Cdk4 kinase activity vs control cells at each respective time (Cdk4 kinase activity; OGF for 3, 6, 9, or 12 h (FIG. 1)): differed significantly | Cdk4 kinase activity relative to controls (Cdk4 kinase activity; OGF for 6, 9, and 12 h): marked decrease | Cdk4 kinase activity relative to controls (Cdk4 kinase activity; OGF for 3 h): transient increase
